According to patent US20260374782A1, “NEW COMPOUNDS, PROCESSES FOR PREPARING THE SAME AND THEIR USE AS DRUGS” (B&A ONCOMEDICAL, priority 2022, published 2026):

Biological target: T1, NKCC1 (Homo sapiens, UniProt P55011)
T1 construct: endogenous in cells; host or cells: native HEK293 cells
T1 sequence (P55011 1-1212): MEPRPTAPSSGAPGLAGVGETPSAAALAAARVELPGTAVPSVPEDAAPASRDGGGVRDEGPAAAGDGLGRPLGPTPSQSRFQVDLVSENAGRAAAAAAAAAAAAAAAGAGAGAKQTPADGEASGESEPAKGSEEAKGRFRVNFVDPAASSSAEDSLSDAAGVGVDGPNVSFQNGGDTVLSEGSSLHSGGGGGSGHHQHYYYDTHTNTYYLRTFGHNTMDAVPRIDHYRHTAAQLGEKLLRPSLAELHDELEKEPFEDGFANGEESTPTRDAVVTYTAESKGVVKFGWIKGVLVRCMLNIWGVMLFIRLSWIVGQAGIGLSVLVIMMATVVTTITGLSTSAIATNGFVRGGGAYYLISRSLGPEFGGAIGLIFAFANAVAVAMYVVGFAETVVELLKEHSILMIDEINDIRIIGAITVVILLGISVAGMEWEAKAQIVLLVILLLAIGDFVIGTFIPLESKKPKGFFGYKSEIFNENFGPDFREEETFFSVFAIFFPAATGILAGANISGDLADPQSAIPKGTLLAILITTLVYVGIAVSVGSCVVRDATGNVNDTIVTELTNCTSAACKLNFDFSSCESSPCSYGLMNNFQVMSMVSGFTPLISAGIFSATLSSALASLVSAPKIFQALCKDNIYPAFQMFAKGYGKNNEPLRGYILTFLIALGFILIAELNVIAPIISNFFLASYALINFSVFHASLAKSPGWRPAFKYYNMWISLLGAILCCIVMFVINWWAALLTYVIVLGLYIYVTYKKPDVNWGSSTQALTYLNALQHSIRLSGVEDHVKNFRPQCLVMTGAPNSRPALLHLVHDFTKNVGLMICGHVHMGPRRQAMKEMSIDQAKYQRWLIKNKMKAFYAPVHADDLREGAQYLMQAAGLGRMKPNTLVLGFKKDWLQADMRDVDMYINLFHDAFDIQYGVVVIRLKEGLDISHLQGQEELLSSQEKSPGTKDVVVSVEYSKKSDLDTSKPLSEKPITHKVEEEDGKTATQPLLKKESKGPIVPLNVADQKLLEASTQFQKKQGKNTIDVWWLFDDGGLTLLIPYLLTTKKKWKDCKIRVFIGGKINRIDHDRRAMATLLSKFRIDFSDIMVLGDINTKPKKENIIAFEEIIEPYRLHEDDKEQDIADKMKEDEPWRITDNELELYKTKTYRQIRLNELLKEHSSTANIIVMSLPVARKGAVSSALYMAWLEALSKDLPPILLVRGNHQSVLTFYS
Experiment: NKCC1-mediated K+ influx (83Rb tracer uptake) in native HEK293 cells, hypertonic saline, 100 μM ouabain
Assay type: cell-based
Details: HEK293, no drug = 1000, 20 μM bumetanide = 0; for inhibition at 20 µM: read-out: NKCC1 mediated flux inhibition at 20 μM (%); for inhibition at 2 µM: read-out: NKCC1 mediated flux inhibition at 2 μM (%)
Excerpt: The compounds of the invention have been tested for evaluating their potency in inhibiting the NKCC1 channel. The test used is a cellular assay expressing the NKCC1 channel: HEK293 cells are human cells derived from embryonic kidney. The inhibitory activity of the compounds has been evaluated in measuring the modification of the potassium flux at 2 concentrations, as described hereafter in the biological protocol.
HEK293 cells are human cells derived from embryonic kidney. They express at their plasma membranes proteins that transport potassium (K^+). Among these proteins is the Na—K-2Cl cotransporter or NKCC1. This transporter contributes to 40-50% of K^+ influx into the cells. The remaining of K^+ transport is mediated by the Na^+/K^+-ATPase (also known as Na^+ pump or Na^+/K^+ pump), which also contributes some 40-50% of the influx basal flux of 5-10%, which is mainly due to K^+ channels (FIG. 1A). Thus, the HEK293 cell in culture is an ideal model to study the function of NKCC1 and test compounds that inhibits its transport.
The assay to measure NKCC1 function was optimized to obtain the next signal to noise ratio: • a. A slightly hypertonic saline was used to stimulate NKCC1 function. […] By consistent use of this simple manipulation, the NKCC1 signal was enhanced. • b. Ouabain, an inhibitor of the Na^+/K^+ pump, was used at 100 μM. […] A radioactive isotope was used to trace the inward movement of K^+ into the cell (influx). This allowed for highly precise measurements of K^+ influx. Because radioactive isotopes of K^+ had very short half-lives, radioactive isotopes of Rb^+ were used. Rubidium was a monovalent cation which was readily transporter at the K^+ binding site by many transporters and channels. Rb^+ was a congener of K^+, being transported undistinguishably from K^+. ^83Rb (half-life of 83 days) was used since ^86Rb (half-life of 19.6 days) is no longer commercially available. The ^83Rb isotope was used as a tracer, i.e. at a very low amounts to trace the movement of K^+.
K^+ influx measured in native HEK293 was in the range of 7000-9000 pmoles K^+ per mg protein per min. In the presence of 20 μM Ref 1, the flux was reduced to 600-900 pmoles K^+ per mg protein per min. Thus, there was a very solid dynamic range. In each experiment, the flux without Ref 1 was set at 1000 (equivalent to 100.0%) and the flux with 20 μM bumetanide was set at 0 (equivalent to 0%).
For the flux experiments, 35-mm culture dishes were coated with 0.1 mg/mL poly-L-lysine and placed in large 20×20 [square] dishes. For convenience, the poly-L-lysine was placed in the dishes the day before the experiment. Before plating the cells, the poly-L-lysine was aspirated, and each dish washed twice with 1 mL sterile water. Cells from 3 confluent 10-cm dishes were detached with trypsin and resuspended into 49 mL complete medium. Cells (2 mL/35-mm dish) were plated in 24 dishes and allowed to attach for at least 2 hours prior to the flux. This setup allowed the measurement of 8 conditions in triplicates. For the flux, culture medium was aspirated and replaced with 1 mL saline for a preincubation period of 15 min. The saline was aspirated and replaced with 1 mL identical saline containing 0.25 μCi/mL 83Rb for 15 min. Following the uptake period, the radioactive solution was aspirated, and the cells washed 3 times with ice-cold saline. Cells were then lyzed with 500 μl 0.25N NaOH for 1 hour, neutralized with 250 μL glacial acetic acid and 300 μL and 30 μL aliquots were used for μ-scintillation counting and protein assays, respectively. Two 5 μL of each flux solution was used to determine cpm and relate those cpm to nmoles K^+. Potassium influx was expressed in nmoles K^+ per mg protein per min. Note that within an experiment, groups of 3 dishes were separated 2 min apart for easy handling. Also note that since all dishes were plated with a homogeneous cell suspension, and all dishes were identical, the protein content was measured from a subset of dishes. […]

Row | Compound | inhibition at 20 µM [%] | inhibition at 2 µM [%]
1 | CCCCNc1cc(C(=O)OC)cc(S(=N)(=O)Nc2ccccc2Cl)c1Oc1ccccc1 (stereo not shown) [Compound 26, methyl 3-(butylamino)-5-[(2-chloroanilino)sulfonimidoyl]-4-phenoxy-benzoate] | 10 to 30 | –
2 | CCCCNc1cc(C(=O)OC)cc(S(=N)(=O)Nc2ccc(Cl)cc2)c1Oc1ccccc1 (stereo not shown) [Compound 27, methyl 3-(butylamino)-5-[(4-chloroanilino)sulfonimidoyl]-4-phenoxy-benzoate] | 10 to 30 | –
3 | CCCCNc1cc(C(=O)OC)cc(S(=N)(=O)Nc2cccc(OC(F)F)c2)c1Oc1ccccc1 (stereo not shown) [Compound 28, methyl 3-(butylamino)-5-[[3-(difluoromethoxy)anilino]sulfonimidoyl]-4-phenoxy-benzoate] | 30 to 50 | –
4 | CCCCNc1cc(C(=O)OC)cc(S(=N)(=O)NC2CCOCC2)c1Oc1ccccc1 (stereo not shown) [Compound 29, methyl 3-(butylamino)-4-phenoxy-5-[(tetrahydropyran-4-ylamino)sulfonimidoyl]benzoate] | 10 to 30 | –
5 | CCCCNc1cc(C(=O)OC)cc(S(=N)(=O)NC2CCN(C)CC2)c1Oc1ccccc1 (stereo not shown) [Compound 30, methyl 3-(butylamino)-5-[[(1-methyl-4-piperidyl)amino]sulfonimidoyl]-4-phenoxy-benzoate] | 30 to 50 | –
6 | CCCCNc1cc(C(=O)OC)cc(S(=N)(=O)Nc2ncccn2)c1Oc1ccccc1 (stereo not shown) [Compound 31, methyl 3-(butylamino)-4-phenoxy-5-[(pyrimidin-2-ylamino)sulfonimidoyl]benzoate] | 10 to 30 | –
7 | CCCCNc1cc(C(=O)OC)cc(S(=N)(=O)NCCc2ccccc2)c1Oc1ccccc1 (stereo not shown) [Compound 34, methyl 3-(butylamino)-4-phenoxy-5-[(2-phenylethylamino)sulfonimidoyl]benzoate] | 30 to 50 | –
8 | CCCCNc1cc(C(=O)OC)cc(S(=N)(=O)NCCc2cccc(Cl)c2)c1Oc1ccccc1 (stereo not shown) [Compound 35, methyl 3-(butylamino)-5-[[2-(3-chlorophenyl)ethylamino]sulfonimidoyl]-4-phenoxy-benzoate] | 30 to 50 | –
9 | CCCCNc1cc(C(=O)OC)cc(S(=N)(=O)NCc2cccnc2)c1Oc1ccccc1 (stereo not shown) [Compound 36, methyl 3-(butylamino)-4-phenoxy-5-[(3-pyridylmethylamino)sulfonimidoyl]benzoate] | 30 to 50 | –
10 | CCCCNc1cc(C(=O)OC)cc(S(=N)(=O)NCCc2cccnc2)c1Oc1ccccc1 (stereo not shown) [Compound 37, methyl 3-(butylamino)-4-phenoxy-5-[[2-(3-pyridyl)ethylamino]sulfonimidoyl]benzoate] | 10 to 30 | –
11 | CCCCNc1cc(C(=O)OC)cc(S(=N)(=O)NCc2nccs2)c1Oc1ccccc1 (stereo not shown) [Compound 38, methyl 3-(butylamino)-4-phenoxy-5-[(thiazol-2-ylmethylamino)sulfonimidoyl]benzoate] | 10 to 30 | –
12 | CCCCNc1cc(C(=O)OC)cc(S(=N)(=O)NCCc2nccs2)c1Oc1ccccc1 (stereo not shown) [Compound 39, methyl 3-(butylamino)-4-phenoxy-5-[(2-thiazol-2-ylethylamino)sulfonimidoyl]benzoate] | 10 to 30 | –
13 | CCCCNc1cc(C(=O)OC)cc(S(=N)(=O)Nc2nccn2C)c1Oc1ccccc1 (stereo not shown) [Compound 40, methyl 3-(butylamino)-5-[[(1-methylimidazol-2-yl)amino]sulfonimidoyl]-4-phenoxy-benzoate] | 30 to 50 | –
14 | CCCCNc1cc(C(=O)OC)cc(S(=N)(=O)Nc2ccccn2)c1Oc1ccccc1 (stereo not shown) [Compound 41, methyl 3-(butylamino)-4-phenoxy-5-[(2-pyridylamino)sulfonimidoyl]benzoate] | 30 to 50 | –
15 | CCCCNc1cc(C(=O)OC)cc(S(=N)(=O)NCc2ccn(C)n2)c1Oc1ccccc1 (stereo not shown) [Compound 42, methyl 3-(butylamino)-5-[[(1-methylpyrazol-3-yl)methylamino]sulfonimidoyl]-4-phenoxy-benzoate] | 10 to 30 | 10 to 30
16 | CCCCNc1cc(C(=O)OC)cc(S(=N)(=O)Nc2nccs2)c1Oc1ccccc1 (stereo not shown) [Compound 43, methyl 3-(butylamino)-4-phenoxy-5-[(thiazol-2-ylamino)sulfonimidoyl]benzoate] | 10 to 30 | 30 to 50
17 | CCCCNc1cc(C(=O)OC)cc(S(=N)(=O)Nc2ccncc2)c1Oc1ccccc1 (stereo not shown) [Compound 44, methyl 3-(butylamino)-4-phenoxy-5-[(4-pyridylamino)sulfonimidoyl]benzoate] | 10 to 30 | 30 to 50
18 | CCCCNc1cc(C(=O)OC)cc(S(=N)(=O)Nc2ccnnc2)c1Oc1ccccc1 (stereo not shown) [Compound 45, methyl 3-(butylamino)-4-phenoxy-5-[(pyridazin-4-ylamino)sulfonimidoyl]benzoate] | 30 to 50 | 30 to 50
19 | CCCCNc1cc(C(=O)OC)cc(S(=N)(=O)NCCCC)c1Oc1ccccc1 (stereo not shown) [Compound 46, methyl 3-(butylamino)-5-(butylaminosulfonimidoyl)-4-phenoxy-benzoate] | 30 to 50 | 30 to 50
20 | CCCCNc1cc(C(=O)OC)cc(S(=N)(=O)NC23CC(C2)C3)c1Oc1ccccc1 (stereo not shown) [Compound 47, methyl 3-[(1-bicyclo[1.1.1]pentanylamino)sulfonimidoyl]-5-(butylamino)-4-phenoxy-benzoate] | 30 to 50 | 30 to 50
21 | CCCCNc1cc(C(=O)OC)cc(S(=N)(=O)NC2CN3CCC2CC3)c1Oc1ccccc1 (stereo not shown) [Compound 48, methyl 3-(butylamino)-4-phenoxy-5-[(quinuclidin-3-ylamino)sulfonimidoyl]benzoate] | 50 to 75 | 30 to 50
